Patent US20250213560A1, “NITROGEN-CONTAINING HETEROCYCLIC COMPOUNDS HAVING PHENYL GROUP AND USES THEREOF” (BNH RESEARCH CO., LTD., priority 2022, published 2025)

Experiments:
GluN2B = GluN2B protein expression by Western blot in primary cortical neuron cells; format: cell-based, mouse; conditions: for GluN2B expression effect (in words): compared to vehicle / other compounds, Table 5; for Western blot results Mean (GluN2B expression): relative value, vehicle set to 1, primary cortical neurons treated for 24 hours
Experimental: Meanwhile, primary cortical neuron cells were isolated from cerebral cortices of 18-day-old mouse fetuses, incubated in prep media (composition (mM): NaCl 107.5, NaH2PO4 1, NaHCO333.5, glucose 11, HEPS 1%, penicillin-streptomycin 1%) containing 0.25% trypsin and DNasel for 30 minutes, dissociated into single cells, and seeded. Primary cortical neuron cells were grown in Neurobasal medium supplemented with 1% (v/v) B27, 1% penicillin (100 U/mL), streptomycin ([…]), and 1% Glutamax. Cells were maintained in a humidified atmosphere of 95% air and 5% CO2 at 37° C. Drug efficacy was evaluated after culturing primary cortical neuron cells for 14 days.
The amount of GluN2B reacted with the compound of the present disclosure was measured using Western blot. The fetal cerebral cortex was extracted from mice at 17 days of gestation, dissociated into single cells, cultured for 13 days, and treated with BnH drugs for 24 hours. The drug-treated cells were subjected to protein lysate preparation using RIPA protein lysis buffer containing protease and phosphatase inhibitors. The protein concentration was determined using a BCA protein assay kit (Pierce Biotechnology) using bovine serum albumin as a standard. Equal amounts of protein (20 μg per lane) were separated by electrophoresis on SDS-polyacrylamide gels at 90 V for 2 hours, then transferred from the SDS-polyacrylamide gel to PVDF membrane at 100 V for 1 hour. Then, primary reaction with GluN2B antibody (ab65783, Abcam) was performed at 4° C. for 1 day, washed three times at 10-minutes intervals with 1×PBT, and secondary reaction was performed with anti-mouse antibody (sc-2357, Santa Cruz) for 1 hour, followed by washing three times at 10-minutes intervals with 1×PBT. Western blotting was performed as described above to confirm GluN2B protein expression. Subsequently, each blot was re-probed using anti-β-actin antibody (sc-47778, Santa Cruz). Housekeeping protein B-actin was detected as a normalization control.
The increase and decrease of BnH12 series were confirmed by setting the vehicle to 1 (N for each group was 3 or more).
Using the experimental procedure described in Example 3, it was determined whether various BnH12 series compounds increase GluN2B expression, and the results are shown in Table 5. These in vitro experimental results are expressed as relative values to the group (vehicle) that was not treated with the compound, with the effect of the group set to 1.

293T cells = assay: Cytotoxicity test (CCK-8 cell viability) in 293T cells; format: cell-based, human; conditions: 293T cell line
Experimental: Human undifferentiated neuroblastoma cell line SH-SY5Y and human embryonic kidney cell line (HEK)-293T were purchased from Korean Cell Line Bank (Korea) and Takara (Japan), respectively. Cells were grown in HyClone Minimal Essential Medium (MEM) and Dulbecco's Modified Eagle Medium (DMEM), respectively, supplemented with 10% (v/v) fetal bovine serum (FBS), penicillin (100 U/mL), and streptomycin ([…]). Cells were maintained in a humidified atmosphere of 95% air and 5% CO2 at 37° C. Cells were passaged 10 times at maximum. Cells were dissociated using 0.05% trypsin-EDTA solution and the cells were seeded in new culture dishes for maintenance.
To examine the cytotoxicity of compounds described herein in human cell lines, SH-SY5Y and 293T cells were used. Approximately 8,000 cells (for 293T) and 15,000 cells (for SH-SY5Y) were plated per well of a 96-well plate (SPL Life Sciences Co., Ltd., Pocheon, Korea). After incubating at 37° C. for 24 hours in a humidified atmosphere containing 5% CO2, the culture medium was replaced by a series of concentrations of test compounds diluted in the corresponding culture medium.
The time of co-incubation was 24 hours and six replicates were made for each measurement. Finally, 10 μL of CCK-8 reagent (Dojindo Laboratories, Rockville, MD) was added to each well, and after incubation at 37° C. for 3 minutes, the OD at 450 nm was measured using a multifunction microplate reader (Tecan Infinite M200 Pro). These measurements were compared to that of a control and expressed as a percentage of the control to calculate cell viability. The IC50 value was calculated using SPSS software. To do this, the absorbance of the blank wells with only growth medium is subtracted from the values or the wells with cells. The readout value of background (vehicle) was set as a 100% viability, and then the percent viability for each test solution was calculated.
The data was presented as the mean value and standard error of the mean (S.E.M.). Statistical analysis was performed with the one-way ANOVA with Tukey's post hoc test (GraphPad Prism 5 software package, version 5.02, GraphPad Software Inc. USA). Significance was accepted at p<0.05.
The cytotoxicity of the compound was evaluated by treating cells with BnH12003 and measuring cell viability.
By treating cells with various BnH12 series compounds and measuring cell viability using the experimental procedure described in Example 2, the cytotoxicity of the compounds was evaluated.

## 6-Ethyl-1-(2-(4-(pyrimidin-5-yl)phenyl) acetyl) piperidine-3-carboxylic acid [BnH12097]
GluN2B
  GluN2B expression effect (in words): excellent effects
  Western blot results Mean (GluN2B expression): 2.625
293T cells
  Cell viability test results (CCK) 10 uM: 90%<
  Cell viability test results (CCK) 100 uM: 85%<

## O=C(NO)[C@@H]1CCCN1C(=O)Cc1ccc(-c2cncnc2)cc1 [BnH12017, (S)-N-hydroxy-1-(2-(4-(pyrimidin-5-yl)phenyl)acetyl)pyrrolidine-2-carboxamide]
GluN2B
  Western blot results Mean (GluN2B expression): 1.448
293T cells
  Cell viability test results (CCK) 10 uM: 95%<
  Cell viability test results (CCK) 100 uM: 80%<

## C[C@H]1CC[C@@H](C(=O)O)CN1C(=O)Cc1ccc(-c2ccnnc2)cc1 [BnH12045, (3R,6S)-6-methyl-1-(2-(4-(pyridazin-4-yl)phenyl)acetyl) piperidine-3-carboxylic acid]
GluN2B
  Western blot results Mean (GluN2B expression): 1.341
293T cells
  Cell viability test results (CCK) 10 uM: 99%<
  Cell viability test results (CCK) 100 uM: 99%<

## C[C@H]1CC[C@@H](C(=O)O)CN1C(=O)Cc1ccc(-c2cccnc2)cc1 [BnH12046, (3R,6S)-6-methyl-1-(2-(4-(pyridin-3-yl)phenyl)acetyl) piperidine-3-carboxylic acid]
GluN2B
  GluN2B expression effect (in words): excellent effects
  Western blot results Mean (GluN2B expression): 2.102
293T cells
  Cell viability test results (CCK) 10 uM: 95%<
  Cell viability test results (CCK) 100 uM: 90%<

## C[C@H]1CC[C@@H](C(=O)O)CN1C(=O)Cc1ccc(-c2cnccn2)cc1 [BnH12047, (3R,6S)-6-methyl-1-(2-(4-(pyrazin-2-yl)phenyl)acetyl) piperidine-3-carboxylic acid]
GluN2B
  Western blot results Mean (GluN2B expression): 1.554
293T cells
  Cell viability test results (CCK) 10 uM: 99%<
  Cell viability test results (CCK) 100 uM: 99%<

## C[C@H]1CC[C@@H](C(=O)O)CN1C(=O)Cc1ccc(-c2ncccn2)cc1 [BnH12048, (3R,6S)-6-methyl-1-(2-(4-(pyrimidin-2-yl)phenyl)acetyl) piperidine-3-carboxylic acid]
GluN2B
  Western blot results Mean (GluN2B expression): 1.071
293T cells
  Cell viability test results (CCK) 10 uM: 95%<
  Cell viability test results (CCK) 100 uM: 80%<

## C[C@H]1CC[C@@H](C(=O)O)CN1C(=O)Cc1ccc(-c2nccn2C)cc1 [BnH12053, sodium (3R,6S)-6-methyl-1-(2-(4-(1-methyl-1H-imidazol-2-yl)phenyl)acetyl) piperidine-3-carboxylate]
GluN2B
  Western blot results Mean (GluN2B expression): 1.652
293T cells
  Cell viability test results (CCK) 10 uM: 95%<
  Cell viability test results (CCK) 100 uM: 95%<

## C[C@H]1CC[C@@H](C(=O)O)CN1C(=O)Cc1ccc(-c2cnco2)cc1 [BnH12057, (3R,6S)-6-methyl-1-(2-(4-(oxazol-5-yl)phenyl)acetyl) piperidine-3-carboxylic acid]
GluN2B
  GluN2B expression effect (in words): excellent effects
  Western blot results Mean (GluN2B expression): 2.241
293T cells
  Cell viability test results (CCK) 10 uM: 95%<
  Cell viability test results (CCK) 100 uM: 55%<

## C[C@H]1CC[C@@H](C(N)=O)CN1C(=O)Cc1ccc(-c2ncccn2)cc1 [BnH12058, (3R,6S)-6-methyl-1-(2-(4-(pyrimidin-2-yl)phenyl)acetyl) piperidine-3-carboxamide]
GluN2B
  Western blot results Mean (GluN2B expression): 1.54
293T cells
  Cell viability test results (CCK) 10 uM: 99%<
  Cell viability test results (CCK) 100 uM: 90%<

## C[C@@H]1CC[C@H](C(=O)O)CN1C(=O)Cc1ccc(-c2cccnc2)cc1 [BnH12066, (3S,6R)-6-methyl-1-(2-(4-(pyridin-3-yl)phenyl)acetyl) piperidine-3-carboxylic acid]
GluN2B
  Western blot results Mean (GluN2B expression): 1.514
293T cells
  Cell viability test results (CCK) 10 uM: 99%<
  Cell viability test results (CCK) 100 uM: 90%<

## C[C@@H]1CC[C@H](C(=O)O)CN1C(=O)Cc1ccc(-c2cnccn2)cc1 [BnH12067, (3S,6R)-6-methyl-1-(2-(4-(pyrazin-2-yl)phenyl)acetyl) piperidine-3-carboxylic acid]
GluN2B
  GluN2B expression effect (in words): excellent effects
  Western blot results Mean (GluN2B expression): 2.565
293T cells
  Cell viability test results (CCK) 10 uM: 99%<
  Cell viability test results (CCK) 100 uM: 85%<
